Experimental findings from patent US20230159620A1, “COMPOSITIONS AND METHODS OF TREATMENT FOR VASCULAR DISEASES AND THROMBOSIS” (Washington University, priority 2021, published 2023) are described below.

One assay has as its system Human platelets. To be noted: static conditions, with and without 0.1 U/mL thrombin.
Another assay concerns FGF receptors. The assay is described as follows: Bulk RNA sequencing of VSMCs, Fgfr transcripts. It counts as cell-based, mouse. Particulars: RNAseq, normalized to BSA. The procedure: Plates were UV sterilized before adding cells. Primary VSMCs were collected, resuspended in DMEM/F12 media containing 10% FBS, plated on precoated, blocked wells, and incubated for 8 hr to ensure complete cell adhesion. Media was replaced with fresh DMEM/F12 containing 1% FBS and incubated for 12 hr before collection. RNA was collected using RNeasy® Mini Kit (#74106, Qiagen). Atherosclerotic aortic arches (including the aortic root, arch, and the proximal regions of its branching vessels) from mice were used as the source of RNA for the later RNAseq experiment. […]
Samples were prepared according to the library kit manufacturer's protocol, indexed, pooled, and sequenced on an Illumina HiSeq. Basecalls and demultiplexing were performed with Illumina's bcl2fastq software and a custom python demultiplexing program with a maximum of one mismatch in the indexing read. RNA-seq reads were then aligned to the Ensembl release 76 primary assembly with STAR version 2.5.1a. Gene counts were derived from the number of uniquely aligned unambiguous reads by Subread:featureCount version 1.4.6-p5 2). […] Sequencing performance was assessed for the total number of aligned reads, the total number of uniquely aligned reads, and the features detected. The ribosomal fraction, known junction saturation, and read distribution over known gene models were quantified with RSeQC version 2.6.2. […]

Assay [1] relates to AKT. The assay is described as follows: AKT signaling immunoblot / phospho-array, HUVECs. The class given is cell-based, human. How it is done:
(§1) Cellular reagents were purchased from various commercial vendors. Primary human umbilical vein endothelial cells (HUVECs) were obtained from Cell Applications Inc. and cultured according to the manufacture's recommendations. Primary human coronary artery smooth muscle cells were obtained from Invitrogen and were cultured according to the manufacture's recommendations. 293T cells were obtained from ATCC and were cultured according to the manufacture's recommendations. Mouse primary smooth muscle cells were obtained and cultured as described previously. Predesigned Silencer Select siRNA constructs targeting Pearl 1 and negative control siRNA were obtained from ThermoFisher. Transfections were performed using RNAiMAX or Lipofectamine 3000 transfection reagents according to the manufacturer's protocols. Cells were used for signaling assays 48 hours after transfection; efficient Pearl 1 knockdown or Pearl 1 overexpression was confirmed by immunoblot assays.
Prior to performing signaling assays, cells were trypsinized, centrifuged, suspended in basal media, and counted using an automated hemocytometer. Cells were further diluted in basal media to an assay-dependent concentration. Cells were then incubated with gentle agitation for 60 minutes to prevent cell attachment and reduce basal signaling. PP1, Dynasore, MK-2206, and Rapamycin were diluted in DMSO and used in assay concentrations of 10 μM, 100 μM, 10 μM, and respectively, for the final 20-30 minutes of incubation in basal media. An equal volume of DMSO was used as the negative control condition. […] 1 μg Pearl 1 polyclonal antibody was added as a specific positive control. 20% growth media or 2% fetal bovine serum, labeled “Serum” in figures, was added as a non-specific positive control. The cells were centrifuged at 300G for 3 minutes with the exception of platelets, which were centrifuged at 500G for 5 minutes. The cells were then incubated at 37° C. for 8-45 minutes, depending on the cell type and pathway of interest. The cells were lysed in radioimmunoprecipitation buffer (RIPA) containing a cocktail of protease and phosphatase inhibitors and universal nuclease. Immunoblots were performed by standard techniques, as briefly follows. Protein content was determined using a bicinchoninic acid assay with BSA standards (#23225, Pierce BCA Protein Assay Kit). Cell lysates were then reduced with dithiothreitol (DTT) in lithium dodecyl sulfate (LDS) sample buffer (#NP0007, Invitrogen). Equal protein amounts were added to polyacrylamide gels (#4561086, BioRad) and electrophoresed prior to transferring to a nitrocellulose or polyvinylidene fluoride membrane (#1620260, BioRad). Membranes were blocked in 5% BSA/Tris-buffered saline (TBS) with 0.1% Tween 20 for 30 minutes. […]

The test system of assay [2] is AKT. Particulars: BSA, N-terminal, C-terminal and full-length SVEP1.
Assay [3] relates to AKT. The assay is described as follows: AKT signaling immunoblot, 293T cells. It counts as cell-based. How it is done:
as §1
Prior to performing signaling assays, cells were trypsinized, centrifuged, suspended in basal media, and counted using an automated hemocytometer. Cells were further diluted in basal media to an assay-dependent concentration. […] Protein content was determined using a bicinchoninic acid assay with BSA standards (#23225, Pierce BCA Protein Assay Kit). […]

Procedure for Human platelets: Subsequently, coverslips were blocked with 1% BSA and washed with PBS. Human platelets were isolated from whole blood and re-suspended in Tyrode's buffer. 2×10^7/mL basal or thrombin activated platelets were added to coverslips and incubated at 37° C. for 10, 20, or 30 minutes. After incubation, non-adherent platelets were removed and the coverslips were washed with PBS, fixed with 1.5% paraformaldehyde, permeabilized with 0.01% Triton-X and stained with TRITC phalloidin. Platelets were visualized using fluorescent microscopy. Images of the adhered platelets were captured using fluorescent microscopy and counted manually by a blinded observer.

“SVEP1: recombinant murine SVEP1 extracellular matrix protein with Myc and poly-histidine tag, expressed in 293F cells”: the “adherence of platelets to coated coverslips” value in the assay with Human platelets is recorded as “adhered”. For the same substance, the “expression of FGF receptors” value with FGF receptors is “increases expression of FGF receptors”. Moreover, the “pAKT, AKT pathway phospho-array” value in the assay on AKT [1] (10 or 30 minutes, SVEP1 relative to BSA) was “Elevated pAKT”. Besides, the AKT signaling result in the assay with AKT [1] (relative to BSA controls) was “activated”. Besides, the “activation of AKT signaling (phospho-AKT)” value with AKT [2] is given as “necessary to activate AKT signaling”. Moreover, the pAKT levels result with AKT [3] (293T cells transfected with Pearl 1-expression plasmid (constitutive AKT activation)) is “no additional effect on pAKT levels”. The AKT activation result in the assay on AKT [3] (293T cells, which lack Pearl 1) is on record as “Neither SVEP1 nor Pearl 1 pAb activated AKT”.
